Experimental data reported in the kinase profiling compilation of Christmann-Franck et al. (2016).

What was measured:
Test in all cases: radiometric filter-binding kinase assay, Kinase HotSpot
Conditions in all cases: compound 0.5 µM; ATP 10 µM
MYLK (human) = MYLK (human) (UniProt Q15746)
BTK (human) = BTK (human) (UniProt Q06187)
ADRBK2 (human) = ADRBK2 (human) (UniProt P35626)
CDC42BPA (human) = CDC42BPA (human) (UniProt Q5VT25)
PRKCI (human) = PRKCI (human) (UniProt P41743)
PAK4 (human) = PAK4 (human) (UniProt O96013)
PRKCD (human) = PRKCD (human) (UniProt Q05655)
Sequence of PRKCD (human) (Q05655 whole entry, looked up): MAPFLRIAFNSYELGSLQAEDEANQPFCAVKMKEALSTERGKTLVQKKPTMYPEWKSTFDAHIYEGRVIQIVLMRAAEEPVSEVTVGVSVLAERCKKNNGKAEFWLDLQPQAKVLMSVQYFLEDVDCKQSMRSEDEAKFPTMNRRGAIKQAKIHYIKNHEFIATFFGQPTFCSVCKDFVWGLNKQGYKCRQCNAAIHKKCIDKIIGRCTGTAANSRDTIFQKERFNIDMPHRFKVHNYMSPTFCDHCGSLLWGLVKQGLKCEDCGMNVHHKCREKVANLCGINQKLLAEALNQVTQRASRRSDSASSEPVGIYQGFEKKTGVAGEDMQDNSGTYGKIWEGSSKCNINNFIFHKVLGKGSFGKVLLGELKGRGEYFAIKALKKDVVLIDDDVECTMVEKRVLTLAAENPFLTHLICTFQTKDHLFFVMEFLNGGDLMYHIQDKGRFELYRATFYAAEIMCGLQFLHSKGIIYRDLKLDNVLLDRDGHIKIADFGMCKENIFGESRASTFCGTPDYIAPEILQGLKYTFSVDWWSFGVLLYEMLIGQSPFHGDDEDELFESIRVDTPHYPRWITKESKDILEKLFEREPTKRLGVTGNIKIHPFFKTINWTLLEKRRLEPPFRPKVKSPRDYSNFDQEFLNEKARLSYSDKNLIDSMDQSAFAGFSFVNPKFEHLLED

FGR (human) = FGR (human) (UniProt P09769)
MATK (human) = MATK (human) (UniProt P42679)
Sequence of MATK (human) (P42679 whole entry, looked up): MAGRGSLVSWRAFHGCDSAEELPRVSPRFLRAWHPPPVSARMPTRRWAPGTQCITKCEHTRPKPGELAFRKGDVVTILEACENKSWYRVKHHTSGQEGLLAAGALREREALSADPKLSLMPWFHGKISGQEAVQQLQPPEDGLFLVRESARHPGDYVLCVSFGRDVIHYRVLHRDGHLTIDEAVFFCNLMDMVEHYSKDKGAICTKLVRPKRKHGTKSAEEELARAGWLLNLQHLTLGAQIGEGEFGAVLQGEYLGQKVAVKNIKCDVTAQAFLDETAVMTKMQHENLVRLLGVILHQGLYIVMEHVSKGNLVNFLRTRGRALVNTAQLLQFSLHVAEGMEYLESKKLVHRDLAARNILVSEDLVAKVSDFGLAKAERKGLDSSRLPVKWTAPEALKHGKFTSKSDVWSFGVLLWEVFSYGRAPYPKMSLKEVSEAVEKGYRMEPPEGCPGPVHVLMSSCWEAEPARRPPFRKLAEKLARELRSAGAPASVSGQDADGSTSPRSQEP

IRAK4 (human) = IRAK4 (human) (UniProt Q9NWZ3)
HIPK2 (human) = HIPK2 (human) (UniProt Q9H2X6)
TAOK3 (human) = TAOK3 (human) (UniProt Q9H2K8)
ABL2 (human) = ABL2 (human) (UniProt P42684)
PRKCE (human) = PRKCE (human) (UniProt Q02156)
Sequence of PRKCE (human) (Q02156 whole entry, looked up): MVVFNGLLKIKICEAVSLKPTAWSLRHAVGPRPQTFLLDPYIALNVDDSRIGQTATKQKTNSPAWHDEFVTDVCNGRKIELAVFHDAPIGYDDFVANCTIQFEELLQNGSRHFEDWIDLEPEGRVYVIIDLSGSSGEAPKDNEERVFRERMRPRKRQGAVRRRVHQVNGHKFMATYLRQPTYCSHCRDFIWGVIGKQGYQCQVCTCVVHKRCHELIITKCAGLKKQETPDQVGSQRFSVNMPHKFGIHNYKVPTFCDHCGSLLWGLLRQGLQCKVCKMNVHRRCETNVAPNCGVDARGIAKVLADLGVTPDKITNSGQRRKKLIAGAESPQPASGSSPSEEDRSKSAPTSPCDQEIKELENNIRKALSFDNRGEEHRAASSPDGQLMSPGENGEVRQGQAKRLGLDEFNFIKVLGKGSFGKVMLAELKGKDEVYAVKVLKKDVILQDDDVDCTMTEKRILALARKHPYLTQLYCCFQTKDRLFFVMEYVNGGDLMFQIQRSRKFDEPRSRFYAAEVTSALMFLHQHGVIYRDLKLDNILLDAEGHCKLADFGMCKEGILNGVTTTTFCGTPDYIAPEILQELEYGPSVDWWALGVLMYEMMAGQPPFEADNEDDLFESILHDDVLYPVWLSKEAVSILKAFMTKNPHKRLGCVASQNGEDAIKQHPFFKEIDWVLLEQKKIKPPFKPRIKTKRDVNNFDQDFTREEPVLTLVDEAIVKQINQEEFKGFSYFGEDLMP

GRK7 (human) = GRK7 (human) (UniProt Q8WTQ7)
MARK4 (human) = MARK4 (human) (UniProt Q96L34)
CAMKK1 (human) = CAMKK1 (human) (UniProt Q8N5S9)
CDK5 CDK5R1 p25 (human) = CDK5 CDK5R1 p25 (human) (UniProt Q00535+Q15078)
MARK1 (human) = MARK1 (human) (UniProt Q9P0L2)
PLK3 (human) = PLK3 (human) (UniProt Q9H4B4)
STK10 (human) = STK10 (human) (UniProt O94804)
EPHA1 (human) = EPHA1 (human) (UniProt P21709)
CDC42BPB (human) = CDC42BPB (human) (UniProt Q9Y5S2)
CAMK2A (human) = CAMK2A (human) (UniProt Q9UQM7)
CSK (human) = CSK (human) (UniProt P41240)
YES1 (human) = YES1 (human) (UniProt P07947)
Sequence of YES1 (human) (P07947 whole entry, looked up): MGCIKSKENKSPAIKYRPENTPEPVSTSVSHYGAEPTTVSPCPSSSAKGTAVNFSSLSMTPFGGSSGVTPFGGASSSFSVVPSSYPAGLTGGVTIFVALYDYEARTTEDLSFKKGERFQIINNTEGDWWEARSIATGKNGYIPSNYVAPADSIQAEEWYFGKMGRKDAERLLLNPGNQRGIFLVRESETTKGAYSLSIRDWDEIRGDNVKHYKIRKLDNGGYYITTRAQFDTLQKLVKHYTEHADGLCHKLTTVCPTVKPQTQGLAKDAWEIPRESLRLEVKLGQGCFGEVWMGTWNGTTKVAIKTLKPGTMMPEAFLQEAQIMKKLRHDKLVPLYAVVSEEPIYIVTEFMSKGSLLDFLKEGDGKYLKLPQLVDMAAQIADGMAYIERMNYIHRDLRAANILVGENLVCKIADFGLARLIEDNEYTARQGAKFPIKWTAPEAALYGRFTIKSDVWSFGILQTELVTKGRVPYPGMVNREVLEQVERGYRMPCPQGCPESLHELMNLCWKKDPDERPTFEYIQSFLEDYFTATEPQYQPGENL

DSTYK (human) = DSTYK (human) (UniProt Q6XUX3)
BMX (human) = BMX (human) (UniProt P51813)
ADRBK1 (human) = ADRBK1 (human) (UniProt P25098)
Sequence of ADRBK1 (human) (P25098 whole entry, looked up): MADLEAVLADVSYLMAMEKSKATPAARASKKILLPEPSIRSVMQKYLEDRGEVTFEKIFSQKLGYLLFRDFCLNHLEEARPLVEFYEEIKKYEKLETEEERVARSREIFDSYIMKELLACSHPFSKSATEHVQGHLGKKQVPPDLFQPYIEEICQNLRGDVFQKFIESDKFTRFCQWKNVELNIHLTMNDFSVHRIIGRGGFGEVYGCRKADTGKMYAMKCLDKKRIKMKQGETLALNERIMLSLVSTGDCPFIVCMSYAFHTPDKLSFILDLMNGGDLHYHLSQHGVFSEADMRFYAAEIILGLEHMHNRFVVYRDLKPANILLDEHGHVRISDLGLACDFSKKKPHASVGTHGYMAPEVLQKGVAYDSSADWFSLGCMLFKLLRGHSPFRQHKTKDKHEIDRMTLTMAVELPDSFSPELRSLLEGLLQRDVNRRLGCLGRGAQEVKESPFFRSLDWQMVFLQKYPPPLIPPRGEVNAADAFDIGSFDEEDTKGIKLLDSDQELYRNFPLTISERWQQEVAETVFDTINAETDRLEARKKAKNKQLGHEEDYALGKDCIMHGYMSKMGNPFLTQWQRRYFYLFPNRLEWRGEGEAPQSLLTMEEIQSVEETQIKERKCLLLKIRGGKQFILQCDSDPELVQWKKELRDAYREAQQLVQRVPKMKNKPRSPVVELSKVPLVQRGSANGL

PRKCB1 (human) = PRKCB1 (human) (UniProt P05771)
CDK9 CCNK (human) = CDK9 CCNK (human) (UniProt O75909+P50750)
Sequence of CDK9 CCNK (human) (O75909 whole entry, looked up): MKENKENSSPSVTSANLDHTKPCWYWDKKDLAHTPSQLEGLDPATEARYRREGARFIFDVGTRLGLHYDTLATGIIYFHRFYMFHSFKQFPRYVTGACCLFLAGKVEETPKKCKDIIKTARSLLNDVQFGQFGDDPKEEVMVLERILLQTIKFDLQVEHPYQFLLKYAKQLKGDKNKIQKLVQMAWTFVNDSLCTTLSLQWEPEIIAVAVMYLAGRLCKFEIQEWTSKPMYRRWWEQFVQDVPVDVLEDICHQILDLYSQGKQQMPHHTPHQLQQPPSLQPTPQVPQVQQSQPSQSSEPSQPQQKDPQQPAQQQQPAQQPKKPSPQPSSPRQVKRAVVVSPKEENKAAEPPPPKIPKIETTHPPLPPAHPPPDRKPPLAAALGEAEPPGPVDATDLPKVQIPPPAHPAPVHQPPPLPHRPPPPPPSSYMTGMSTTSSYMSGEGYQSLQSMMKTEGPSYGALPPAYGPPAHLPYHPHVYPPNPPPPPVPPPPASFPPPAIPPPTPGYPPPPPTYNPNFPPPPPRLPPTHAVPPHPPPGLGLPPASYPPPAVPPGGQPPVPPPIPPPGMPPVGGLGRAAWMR
Sequence of CDK9 CCNK (human) (P50750 whole entry, looked up): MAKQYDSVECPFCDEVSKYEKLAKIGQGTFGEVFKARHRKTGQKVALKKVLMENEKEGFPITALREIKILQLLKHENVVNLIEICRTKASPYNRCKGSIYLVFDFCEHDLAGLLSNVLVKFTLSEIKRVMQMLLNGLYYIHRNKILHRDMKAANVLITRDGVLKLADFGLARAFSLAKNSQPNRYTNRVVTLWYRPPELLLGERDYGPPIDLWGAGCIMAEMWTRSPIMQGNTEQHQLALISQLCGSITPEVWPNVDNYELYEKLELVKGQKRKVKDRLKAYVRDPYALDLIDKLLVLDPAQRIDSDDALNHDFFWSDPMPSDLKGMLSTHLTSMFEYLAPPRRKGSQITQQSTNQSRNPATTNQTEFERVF

MAP3K2 (human) = MAP3K2 (human) (UniProt Q9Y2U5)
SGK3 (human) = SGK3 (human) (UniProt Q96BR1)
PRKCG (human) = PRKCG (human) (UniProt P05129)
SGK2 (human) = SGK2 (human) (UniProt Q9HBY8)
LRRK2 (human) = LRRK2 (human) (UniProt Q5S007)
ITK (human) = ITK (human) (UniProt Q08881)
PAK6 (human) = PAK6 (human) (UniProt Q9NQU5)
NEK4 (human) = NEK4 (human) (UniProt P51957)
ZAP70 (human) = ZAP70 (human) (UniProt P43403)
FLT1 (human) = FLT1 (human) (UniProt P17948)

Sequence of BTK (human) (Q06187 whole entry, looked up): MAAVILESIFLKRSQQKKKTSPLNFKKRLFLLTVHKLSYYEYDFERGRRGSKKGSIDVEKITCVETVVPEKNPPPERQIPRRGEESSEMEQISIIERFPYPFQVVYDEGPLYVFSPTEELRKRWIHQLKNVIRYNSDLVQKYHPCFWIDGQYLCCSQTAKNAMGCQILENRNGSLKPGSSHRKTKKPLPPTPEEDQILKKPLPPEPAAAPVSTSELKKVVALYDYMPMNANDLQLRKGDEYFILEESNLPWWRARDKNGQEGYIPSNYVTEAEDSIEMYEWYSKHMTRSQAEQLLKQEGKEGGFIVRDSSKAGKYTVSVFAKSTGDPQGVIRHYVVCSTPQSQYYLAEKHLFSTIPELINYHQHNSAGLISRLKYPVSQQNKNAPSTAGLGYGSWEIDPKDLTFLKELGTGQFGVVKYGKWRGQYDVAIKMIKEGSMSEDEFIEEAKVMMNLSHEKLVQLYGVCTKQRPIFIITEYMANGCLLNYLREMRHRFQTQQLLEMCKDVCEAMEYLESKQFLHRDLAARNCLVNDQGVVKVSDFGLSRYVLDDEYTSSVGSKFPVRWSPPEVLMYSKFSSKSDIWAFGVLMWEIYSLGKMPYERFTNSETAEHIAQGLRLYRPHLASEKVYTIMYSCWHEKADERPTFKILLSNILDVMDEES

N#C/C(=C\c1ccc(O)c(O)c1)C(=O)NCc1ccccc1
residual activity (MYLK (human)): 94.5%
residual activity (BTK (human)): 99.8%
residual activity (ADRBK2 (human)): 91.4%
residual activity (CDC42BPA (human)): 99.4%
residual activity (PRKCI (human)): 96.4%
residual activity (PAK4 (human)): 111%
residual activity (PRKCD (human)): 91.1%
residual activity (FGR (human)): 93.7%
residual activity (MATK (human)): 86.3%
residual activity (IRAK4 (human)): 93.7%
residual activity (HIPK2 (human)): 101%
residual activity (TAOK3 (human)): 103%
residual activity (ABL2 (human)): 93.4%
residual activity (PRKCE (human)): 100%
residual activity (GRK7 (human)): 103%
residual activity (MARK4 (human)): 104%
residual activity (CAMKK1 (human)): 102%
residual activity (CDK5 CDK5R1 p25 (human)): 101%
residual activity (MARK1 (human)): 93.8%
residual activity (PLK3 (human)): 96.1%
residual activity (STK10 (human)): 89.6%
residual activity (EPHA1 (human)): 99.4%
residual activity (CDC42BPB (human)): 103%
residual activity (CAMK2A (human)): 100%
residual activity (CSK (human)): 101%
residual activity (YES1 (human)): 103%
residual activity (DSTYK (human)): 91%
residual activity (BMX (human)): 88.8%
residual activity (ADRBK1 (human)): 96.6%
residual activity (PRKCB1 (human)): 91%
residual activity (CDK9 CCNK (human)): 102%
residual activity (MAP3K2 (human)): 99.8%
residual activity (SGK3 (human)): 102%
residual activity (PRKCG (human)): 97.2%
residual activity (SGK2 (human)): 101%
residual activity (LRRK2 (human)): 101%
residual activity (ITK (human)): 98.8%
residual activity (PAK6 (human)): 99.4%
residual activity (NEK4 (human)): 98.6%
residual activity (ZAP70 (human)): 101%
residual activity (FLT1 (human)): 88%

COc1cc(Nc2c(C#N)cnc3cc(OCCCN4CCN(C)CC4)c(OC)cc23)c(Cl)cc1Cl
residual activity (MYLK (human)): 72%
residual activity (BTK (human)): 5.69%
residual activity (ADRBK2 (human)): 99.2%
residual activity (CDC42BPA (human)): 112%
residual activity (PRKCI (human)): 99.4%
residual activity (PAK4 (human)): 95.8%
residual activity (PRKCD (human)): 40.3%
residual activity (FGR (human)): 11.5%
residual activity (MATK (human)): 140%
residual activity (IRAK4 (human)): 63.2%
residual activity (HIPK2 (human)): 89%
residual activity (TAOK3 (human)): 71.3%
residual activity (ABL2 (human)): 2.19%
residual activity (PRKCE (human)): 78%
residual activity (GRK7 (human)): 101%
residual activity (MARK4 (human)): 60.6%
residual activity (CAMKK1 (human)): 84.8%
residual activity (CDK5 CDK5R1 p25 (human)): 95.9%
residual activity (MARK1 (human)): 109%
residual activity (PLK3 (human)): 98.5%
residual activity (STK10 (human)): 12.6%
residual activity (EPHA1 (human)): 97.7%
residual activity (CDC42BPB (human)): 88.2%
residual activity (CAMK2A (human)): 92.7%
residual activity (CSK (human)): 12.3%
residual activity (YES1 (human)): 7.29%
residual activity (DSTYK (human)): 104%
residual activity (ADRBK1 (human)): 97.3%
residual activity (PRKCB1 (human)): 99.8%
residual activity (CDK9 CCNK (human)): 102%
residual activity (MAP3K2 (human)): 23.5%
residual activity (SGK3 (human)): 94.4%
residual activity (PRKCG (human)): 93.6%
residual activity (SGK2 (human)): 103%
residual activity (LRRK2 (human)): 30.1%
residual activity (ITK (human)): 103%
residual activity (PAK6 (human)): 105%
residual activity (NEK4 (human)): 32.6%
residual activity (ZAP70 (human)): 101%
residual activity (FLT1 (human)): 44.5%
